This is an account of results in US20220153718A1, “SYNTHESIS OF STABLE AMORPHOUS APALUTAMIDE” (OLON S.P.A., priority 2019, published 2022).

This data set can be described thus: Solid-form stability under forced-air drying (XRPD). Type of data set: physicochemical. As to conditions: drying at 90° C. for over 100 hours, under vacuum, in a stove. The method, then: Forced-air drying here means drying at 90° C. for over 100 hours, under vacuum, in a stove.

Molecules are shown by their SMILES.

Turning to `CNC(=O)c1ccc(N2C(=S)N(c3cnc(C#N)c(C(F)(F)F)c3)C(=O)C23CCC3)cc1F` [amorphous form obtained by evaporation of the solvent after ] [4-{7-[6-cyano-5-(trifluoromethyl)pyridin-3-yl]-8-oxo-6-sulphanylidene-5,7-diazaspiro[3,4]octan-5-yl}-2-fluoro-N-methylbenzamide], the “Stability of the amorphous form after forced-air drying” value was “converted to a mixture of amorphous form, form A and form B”. Next, `CNC(=O)c1ccc(N2C(=S)N(c3cnc(C#N)c(C(F)(F)F)c3)C(=O)C23CCC3)cc1F` [stable amorphous form of apalutamide, 4-{7-[6-cyano-5-(trifluoromethyl)pyridin-3-yl]-8-oxo-6-sulphanylidene-5,7-diazaspiro[3,4]octan-5-yl}-2-fluoro-N-methylbenzamide]: “stable”.
